# From US9335325B2, “Immunodominant Mycobacterium tuberculosis peptides from cell wall proteins for early diagnosis and immunization” (priority 2008, dated 2016)
# B1: LipC: purified His-tagged recombinant Mtb LipC protein (SEQ ID NO:6), probable esterase (protein)
# chain: MNQRRAAGSTGVAYIRWLLRARPADYMLALSVAGGSLPVVGKHLKPLGGVTAIGVWGARHASDFLSATAKDLLTPGINEVRRRDRASTQEVSVAALRGIVSPDDLAVEWPAPERTPPVCGALRHRRYVHRRRVLYGDDPAQLLDVWRRKDMPTKPAPVLIFVPGGAWVHGSRAIQGYAVLSRLAAQGWVCLSIDYRVAPHHRWPRHILDVKTAIAWARANVDKFGGDRNFIAVAGCSAGGHLSALAGLTANDPQYQAELPEGSDTSVDAVVGIYGRYDWEDRSTPERARFVDFLERVVVQRTIDRHPEVFRDASPIQRVTRNAPPFLVIHGSRDCVIPVEQARSFVERLRAVSRSQVGYLELPGAGHGFDLLDGARTGPTAHAIALFLNQVHRSRAQFAKEVI
# modifications: His tag; Mycbacterium tuberculosis Strain H37Rv
# Key:
# Assay type in all cases: binding
# [1] = test system: antibodies in sera from TB patients and PPD+/PPD- healthy subjects; test: ELISA of PE-PGRS51 overlapping peptides with human sera; conditions: for non-specific reactivity with sera from HIV+TB- subjects: 20 HIV+TB- subjects, positive/tested; for final sensitivity: percent of patients whose sera recognize the peptide: 90 sputum smear positive TB patients, positive 2/3 or 3/3 times, cut-off mean plus 4 SD; for Immunoreactive: PE-PGRS51 peptides, biotinylated, streptavidin plates, TB patient sera
# [2] = test system: antibodies in sera from HIV-TB+ patients and PPD+/PPD- healthy controls; test: ELISA of LipC overlapping peptides with human sera; conditions: biotinylated, streptavidin plates, patient sera
# [3] = test system: antibodies in sera from HIV-TB+ patients and PPD+/PPD- healthy controls; test: ELISA of PTRP overlapping peptides with human sera; conditions: for Immunoreactive: PTRP peptides, biotinylated, streptavidin plates, TB patient sera; for percent of HIV-TB+ patient sera positive with the peptide in 2/3 or 3/3 tests: 60 HIV-TB+ patients, cut-off mean OD of PPD+/PPD- plus 3 SD, retested twice
# [4] = test system: anti-LipC antibodies in sera from TB patients; test: Western blot of His-tagged LipC probed with human sera; conditions: for sera showing anti-LipC antibodies: positive/tested
Molecule,Immunoreactive [1],Immunoreactive [3],further results
AGAGGNGAAGGDGGANGGAG [PG-31],++ (++ indicates that the peptides were recognized by 40% or more TB patient sera),,non-specific reactivity with sera from HIV+TB- subjects [1]: no cross-reactivity; percent of HIV+TB+ patient sera recognizing the peptide (sensitivity) ([1]; 30 smear positive HIV+TB+ patients): 57%; final sensitivity: percent of patients whose sera recognize the peptide [1]: 52%
AHAIALFLNQVHRSRAQFAK [Lp-39],,,Immunoreactive [2]: ++ (++ immunodominant based on being recognized by 45% or more patient sera)
ARPADYMLALSVAGGSLPVV [Lp-3],,,Immunoreactive [2]: ++ (++ immunodominant based on being recognized by 45% or more patient sera)
DATTSLPRAEAGQSGSEGEQ [PT-23],,++ (++ indicates that the peptides were recognized by 40% or more TB patient sera),
DGGLLFGNGGAGYNSAATPG [PG-14],++ (++ indicates that the peptides were recognized by 40% or more TB patient sera),,
DRSLAGENHRLVATRLCWPD [PT-6],,++ (++ indicates that the peptides were recognized by 40% or more TB patient sera),
FPGWQPGMPTIPTAPPTTPV [PT-41],,++ (++ indicates that the peptides were recognized by 40% or more TB patient sera),percent of HIV-TB+ patient sera positive with the peptide in 2/3 or 3/3 tests [3]: 55%
GGTGGDGGDGGHAGTGGRGG [PG-51],++ (++ indicates that the peptides were recognized by 40% or more TB patient sera),,
GGTHGTPGSGNAGGTGTGNA [PG-55],++ (++ indicates that the peptides were recognized by 40% or more TB patient sera),,final sensitivity: percent of patients whose sera recognize the peptide [1]: 49%
GHAGTGGRGGLLAGQHANSG [PG-52],++ (++ indicates that the peptides were recognized by 40% or more TB patient sera),,
GNGGAGGDANGNPANTSIAN [PG-29],++ (++ indicates that the peptides were recognized by 40% or more TB patient sera),,
GSRDCVIPVEQARSFVERLR [Lp-34],,,Immunoreactive [2]: ++ (++ immunodominant based on being recognized by 45% or more patient sera)
GTPGGAGVNGGNGGAGGDAN [PG-28],++ (++ indicates that the peptides were recognized by 40% or more TB patient sera),,
IAVAGCSAGGHLSALAGLTA [Lp-24],,,Immunoreactive [2]: ++ (++ immunodominant based on being recognized by 45% or more patient sera)
LAAAASDVANIGSALSAANA [PG-2],++ (++ indicates that the peptides were recognized by 40% or more TB patient sera),,non-specific reactivity with sera from HIV+TB- subjects [1]: 2/20; final sensitivity: percent of patients whose sera recognize the peptide [1]: 48%
LLAGQHANSGNGGGGGTGGA [PG-53],++ (++ indicates that the peptides were recognized by 40% or more TB patient sera),,
LQDSGVHDVAVISEAQAATA [PT-9],,++ (++ indicates that the peptides were recognized by 40% or more TB patient sera),percent of HIV-TB+ patient sera positive with the peptide in 2/3 or 3/3 tests [3]: 58%

Molecule,Immunoreactive [1],Immunoreactive [3],further results
LSVVGDPDAPPTMVAVAPVA [PT-13],,++ (++ indicates that the peptides were recognized by 40% or more TB patient sera),percent of HIV-TB+ patient sera positive with the peptide in 2/3 or 3/3 tests [3]: 53%
LTGNDGVNPAPVTNPALNGA [PG-24],++ (++ indicates that the peptides were recognized by 40% or more TB patient sera),,
MAGGNGGNAGLIGNGGTGGS [PG-16],++ (++ indicates that the peptides were recognized by 40% or more TB patient sera),,
MDVALGVAVTDRVARLALVD [PT-1],,++ (++ indicates that the peptides were recognized by 40% or more TB patient sera),
NDPQYQAELPEGSDTSVDAV [Lp-26],,,Immunoreactive [2]: ++ (++ immunodominant based on being recognized by 45% or more patient sera)
NGGAGGDAGHGGTGGDGGDG [PG-50],++ (++ indicates that the peptides were recognized by 40% or more TB patient sera),,non-specific reactivity with sera from HIV+TB- subjects [1]: 1/20; final sensitivity: percent of patients whose sera recognize the peptide [1]: 50%
PIPVPIIIPPFPGWQPGMPT [PT-40],,++ (++ indicates that the peptides were recognized by 40% or more TB patient sera),percent of HIV-TB+ patient sera positive with the peptide in 2/3 or 3/3 tests [3]: 52%
PTMVAVAPVAGADATSTVDT [PT-14],,++ (++ indicates that the peptides were recognized by 40% or more TB patient sera),
QQAPVPPPPPDDPTAGFQGG [PT-34],,++ (++ indicates that the peptides were recognized by 40% or more TB patient sera),
QTPDDPTFALARGAAMAAGA [PT-20],,++ (++ indicates that the peptides were recognized by 40% or more TB patient sera),
SAAPGTVIDQFVLDVAEHPV [PT-3],,++ (++ indicates that the peptides were recognized by 40% or more TB patient sera),
SVAGGSLPVVGKHLKPLGGV [Lp-4],,,Immunoreactive [2]: ++ (++ immunodominant based on being recognized by 45% or more patient sera)
TAIGVWGARHASDFLSATAK [Lp-6],,,Immunoreactive [2]: ++ (++ immunodominant based on being recognized by 45% or more patient sera)
TGAGGSYALTEAANVQQNLL [PG-9],++ (++ indicates that the peptides were recognized by 40% or more TB patient sera),,
TTPPTTPVTTPPTTPPTTPV [PT-45],,++ (++ indicates that the peptides were recognized by 40% or more TB patient sera),
B1,,,"sera showing anti-LipC antibodies ([4]; HIV+TB+ patients): 6/6; reactivity of control sera ([4]; HIV+TB-, HIV-PPD+, HIV-PPD- control sera): background cross-reactivity; sera showing anti-LipC antibodies ([4]; HIV-TB+ patients): 5/6; sera showing anti-LipC antibodies ([4]; TB patients (HIV-TB+ and HIV+TB+)): 11/12"
